# According to the supplement of paper PMC13380429:
# ± gives the standard deviation of the averaged measurements.
# Legend:
# Conditions in all cases: 72 h
# [1] = test system: HepG2; assay: drug sensitivity score (DSS) for viability; higher = more toxic; extreme values may be limits of the assay
# [2] = test system: Calu-3; assay: as above
# [3] = test system: Vero E6; assay: as above
# [4] = test system: U2OS; assay: as above
# [5] = test system: Caco-2; assay: as above
# [6] = test system: HepG2; assay: cell viability relative to DMSO; higher = less toxic
# [7] = test system: Calu-3; assay: as above
# [8] = test system: Vero E6; assay: as above
# [9] = test system: U2OS; assay: as above
# [10] = test system: Caco-2; assay: as above
# [11] = test system: HepG2; assay: relative viability EC50 (midpoint between 100% and the lowest measured viability); higher = less toxic
# [12] = test system: Calu-3; assay: as above
# [13] = test system: Vero E6; assay: as above
# [14] = test system: U2OS; assay: as above
# [15] = test system: Caco-2; assay: as above
Structure (SMILES),drug sensitivity score [1],drug sensitivity score [2],drug sensitivity score [3],drug sensitivity score [4],drug sensitivity score [5],cell viability ([6]; 1 nM) [%],cell viability ([6]; 10 nM) [%],cell viability ([6]; 100 nM) [%],cell viability ([6]; 1000 nM) [%],cell viability ([6]; 10000 nM) [%],cell viability ([7]; 1 nM) [%],cell viability ([7]; 10 nM) [%],cell viability ([7]; 100 nM) [%],cell viability ([7]; 1000 nM) [%],cell viability ([7]; 10000 nM) [%],cell viability ([8]; 1 nM) [%],cell viability ([8]; 10 nM) [%],cell viability ([8]; 100 nM) [%],cell viability ([8]; 1000 nM) [%],cell viability ([8]; 10000 nM) [%],cell viability ([9]; 1 nM) [%],cell viability ([9]; 10 nM) [%],cell viability ([9]; 100 nM) [%],cell viability ([9]; 1000 nM) [%],cell viability ([9]; 10000 nM) [%],cell viability ([10]; 1 nM) [%],cell viability ([10]; 10 nM) [%],cell viability ([10]; 100 nM) [%],cell viability ([10]; 1000 nM) [%],cell viability ([10]; 10000 nM) [%],relative viability EC50 [11] [µM],relative viability EC50 [12] [µM],relative viability EC50 [13] [µM],relative viability EC50 [14] [µM],relative viability EC50 [15] [µM]
"CC1(C)[C@H]2CC[C@]1(C)[C@@H](O)[C@H]2O [cis-exo-camphanediol-2,3]",0,0,0,0,0,92,88.7,98.7,98.1,102,104 ± 7.5,100 ± 1.9,106.2 ± 0.64,102 ± 5.9,97.85 ± 0.21,97.8 ± 2.5,96.5 ± 10,96.8 ± 1.5,94.8 ± 6.7,95.6 ± 3.2,99.55 ± 0.071,106 ± 1.4,99 ± 1.6,99.5 ± 3.2,99 ± 5.7,99.8 ± 5.1,104 ± 12,100 ± 9.5,102 ± 15,95.5 ± 5.4,> 10,> 10,> 10,> 10,> 10
COc1cc(N)c(Cl)cc1C(=O)NC1CCN(Cc2ccccc2)CC1 [clebopride],0,0,0,0,0.1,97.1,97.5,95.1,104,94.7,94.3,101,107,96.6,94.2,93.6,104,102,97.6,98.1,93.7,97.2,96.8,97.3,94,107,99.9,108,102,85.6,> 10,> 10,> 10,> 10,> 10
Oc1c(I)cc(Cl)c2cccnc12 [clioquinol],0.7,0,0,0,0.2,101,98.7,92.8,104,75.6,95,93.2,104,87.8,97.1,106,99.3,108,111,87.2,97.1,93.6,100,96.4,99.5,93.5,92.2,108,99.7,85.8,> 10,> 10,> 10,> 10,> 10
Nc1ncnc2c1ncn2[C@@H]1O[C@@H]2COP(=O)(O)O[C@H]2[C@H]1O [cyclic-AMP],0,0,0,0,0,97.7,100,89.5,102,92.2,100,107,103,111,95.5,102,98.6,93.9,102,98.9,103,103,96.1,102,99.6,89.8,93,94.5,93.5,95.9,> 10,> 10,> 10,> 10,> 10
O=c1cccc2n1C[C@@H]1CNC[C@H]2C1 [cytisine],0,0,0,0,0,102,101,96.4,97,114,101,95.6,99,95.4,104,88.2,98.6,92.5,97.3,108,102,96.2,101,100,102,93.3,92.2,92.4,91.3,96.5,> 10,> 10,> 10,> 10,> 10
O=C1c2c(O)cc(O)cc2O[C@H](c2cc(O)c(O)c(O)c2)[C@H]1O [dihydromyricetin],0,0,0,0,0,95.8,94.5,98.5,94.7,103,105,98.2,93.7,111,90.3,96.1,96,96.4,98.4,103,102,95.8,103,106,104,102,92.3,95.6,100,97.4,> 10,> 10,> 10,> 10,> 10
